Measurements published in patent publication US4814432A, “Inhibitor of ribonucleotide reductase” (priority 1987, dated 1989).
pIC50: −log10 of the molar value. Where a SMILES comes first, the peptide text is derived from it. Where no end group is shown, it is not given here. [ ]: non-standard residue; d: D form. The star is where a group is joined. Desaminotyrosyl = O=C(CCc1ccc(O)cc1)*; NMeY = CN[C@@H](Cc1ccc(O)cc1)C(=O)O; Aib = CC(C)(N)C(=O)O; Ava = NCCCCC(=O)O

Target: Herpes Simplex Virus Ribonucleotide Reductase (HSV RR) (Human herpesvirus 2, UniProt P89462)
Sequence (P89462 whole entry): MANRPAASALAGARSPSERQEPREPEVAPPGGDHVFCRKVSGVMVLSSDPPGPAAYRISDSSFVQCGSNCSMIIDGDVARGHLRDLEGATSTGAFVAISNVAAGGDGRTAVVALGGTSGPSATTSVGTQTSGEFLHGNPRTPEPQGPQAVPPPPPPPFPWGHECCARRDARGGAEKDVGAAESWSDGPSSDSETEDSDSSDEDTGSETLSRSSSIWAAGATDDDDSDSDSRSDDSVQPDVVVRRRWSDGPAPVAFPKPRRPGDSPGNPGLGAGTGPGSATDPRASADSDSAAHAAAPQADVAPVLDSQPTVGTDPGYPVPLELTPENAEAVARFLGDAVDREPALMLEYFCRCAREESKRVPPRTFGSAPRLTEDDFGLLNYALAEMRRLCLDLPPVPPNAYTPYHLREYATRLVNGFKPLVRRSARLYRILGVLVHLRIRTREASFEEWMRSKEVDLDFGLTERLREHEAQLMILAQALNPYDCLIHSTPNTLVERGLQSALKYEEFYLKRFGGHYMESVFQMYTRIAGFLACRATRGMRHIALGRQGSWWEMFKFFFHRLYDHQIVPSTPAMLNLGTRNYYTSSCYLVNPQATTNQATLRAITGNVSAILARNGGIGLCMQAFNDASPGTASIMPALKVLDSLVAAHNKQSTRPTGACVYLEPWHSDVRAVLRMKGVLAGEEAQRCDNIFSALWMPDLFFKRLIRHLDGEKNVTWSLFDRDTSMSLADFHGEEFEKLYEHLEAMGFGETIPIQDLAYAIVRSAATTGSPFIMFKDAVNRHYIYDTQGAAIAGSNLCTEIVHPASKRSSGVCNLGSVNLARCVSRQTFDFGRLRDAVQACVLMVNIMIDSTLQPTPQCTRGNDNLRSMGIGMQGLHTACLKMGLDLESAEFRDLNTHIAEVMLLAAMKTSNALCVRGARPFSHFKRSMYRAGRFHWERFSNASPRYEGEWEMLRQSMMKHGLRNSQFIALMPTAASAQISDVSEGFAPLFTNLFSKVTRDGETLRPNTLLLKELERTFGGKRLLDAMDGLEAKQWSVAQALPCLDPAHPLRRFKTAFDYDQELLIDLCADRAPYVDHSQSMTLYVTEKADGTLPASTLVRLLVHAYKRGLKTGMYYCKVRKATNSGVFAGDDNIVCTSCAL
Assay: biochemical
Details: not given
Description: HSV RR was purified from Baby Hamster Kidney cells that were cultured with HSV2 Strain 186. After infection, cells were harvested and lysed. Crude HSV RR was prepared as described by Huszar et al., J. Virol. 37: 580-588(1981) then subjected to further purification by hydroxyapatite column chromotography.
HSV RR activity was determined as the ability of the enzyme to catalyze the reduction of tritiated cytidine-diphosphate to deoxyribo-cytidine-diphosphate in 30 minutes at 37° C. in the presence of dithiothreitol and MgCl2. Activity of oligopeptide inhibitors was determined by adding them to the reaction mix at the beginning of the incubation. Enzyme was not preincubated with inhibitor.
Oligopeptides were synthesized by either the solid phase method of Merrified, op. cit., or by FMOC chemistry (John Morrow Stewart and Janis Dillaha Young, "Solid Phase Peptide Synthesis," 2nd ed, 1984, Pierce Chemical Co., Rockford, IL.) and purified to >98% homogeneity by reverse phase HPLC and recovered by lyophilization as trifluoroacetic acid salts. These were analyzed for amino acid composition and in some cases sequenced. Dry peptides were resuspended in 100 mM HEPES (pH 8.0) at about 2 mM, relyophilized, and stored in aliquots at -80° C. Immediately prior to use they were rehydrated with distilled H2 O and centrifuged to remove any undissolved peptide. The concentrations of these stock solutions were then determined by measuring A291 nm at basic pH (ε=2.55) for tyrosine-containing peptides and by quantitative amino acid composition for those peptides without tyrosine.
Work on `CN[C@@H](Cc1ccc(O)cc1)C(=O)N[C@H](C(=O)N[C@H](C(=O)N[C@@H](CC(N)=O)C(=O)N[C@@H](CC(=O)O)C(=O)N[C@@H](CC(C)C)C(=O)O)C(C)C)C(C)C` [MeNY V V N D L] (H-[NMeY]VVNDL-OH) yielded a pIC50 of 4.92.
For `COc1ccc(C[C@H](N)C(=O)N[C@H](C(=O)N[C@H](C(=O)N[C@@H](CC(N)=O)C(=O)N[C@@H](CC(=O)O)C(=O)N[C@@H](CC(C)C)C(=O)O)C(C)C)C(C)C)cc1` [MeOY V V N D L] (H-Y(Me)VVNDL-OH), the pIC50 was 4.70.
With `CC(C)C[C@H](NC(=O)[C@H](CC(=O)O)NC(=O)C(C)(C)NC(=O)[C@@H](NC(=O)[C@@H](NC(=O)[C@H](C)NC(=O)CNC(=O)[C@H](C)NC(=O)[C@@H](N)Cc1ccc(O)cc1)C(C)C)C(C)C)C(=O)O` [Y A G A V V J D L] (H-YAGAVV[Aib]DL-OH) the pIC50 was 3.70.
With `CC(C)C[C@H](NC(=O)[C@H](CC(=O)O)NC(=O)[C@H](CC(N)=O)NC(=O)[C@@H](NC(=O)[C@@H](NC(=O)[C@H](Cc1ccc(O)cc1)NC(=O)CCCCNC(=O)[C@@H](N)Cc1ccc(O)cc1)C(C)C)C(C)C)C(=O)O` [YBY V V N D L] (H-Y[Ava]YVVNDL-OH) the pIC50 was 4.70.
With `CC(C)C[C@H](NC(=O)[C@H](CC(=O)O)NC(=O)[C@H](CC(N)=O)NC(=O)[C@@H](NC(=O)[C@@H](NC(=O)CCc1ccc(O)cc1)C(C)C)C(C)C)C(=O)O` [desNH2Y V V N D L] the pIC50 was 4.62.
For `CC(C)C[C@H](NC(=O)[C@H](CC(=O)O)NC(=O)[C@H](CC(N)=O)NC(=O)[C@@H](NC(=O)[C@@H](NC(=O)[C@H](C)NC(=O)CCc1ccc(O)cc1)C(C)C)C(C)C)C(=O)O` [desNH2YA V V N D L] (Desaminotyrosyl-AVVNDL-OH), the pIC50 was 3.80.
For AAAVVNDL [A AA V V N D L], the pIC50 was 4.11.
Work on AVVDDL [A V V D D L] yielded a pIC50 of 3.71.
Ac-YVVNDL [AcY V V N D L] gave a pIC50 of 4.74.
For FAGAVVNDL [FA G A V V N D L], the pIC50 was 4.25.
Work on FVVNDL [F V V N D L] yielded a pIC50 of 4.19.
HVVNDL [H V V N D L] showed a pIC50 of 4.34.
In the case of KKLEEFLKVVNDL [K K L E E FLK V V N D L], the pIC50 was 3.70.
Molecule WVVNDL [W V V N D L] has a pIC50 of 4.77.
Work on YAAVVNDL [YAA V V N D L] yielded a pIC50 of 3.95.
In the case of YAGYVVNDL [Y A G Y V V N D L], the pIC50 was 5.10.
In the case of YAPAVVNDL [Y A PA V V N D L], the pIC50 was 4.85.
Work on YVVNDL [Y V V N D L] yielded a pIC50 of 4.82.

Target: ribonucleotide reductase enzyme of herpes simplex virus (Human herpesvirus 1, UniProt P08543)
Assay: not given
Details: Dutia et al. and Cohen et al., Nature 321 (1986); cited from earlier work
For Tyr Ala Gly Ala Val Val Asn Asp Leu, the “inhibition in vitro of enzyme activity” value is given as “inhibited”.

Target: T1, ribonucleotide reductase enzyme of herpes simplex virus (Human herpesvirus 1, UniProt P08543)
T1 sequence (P08543 whole entry, looked up): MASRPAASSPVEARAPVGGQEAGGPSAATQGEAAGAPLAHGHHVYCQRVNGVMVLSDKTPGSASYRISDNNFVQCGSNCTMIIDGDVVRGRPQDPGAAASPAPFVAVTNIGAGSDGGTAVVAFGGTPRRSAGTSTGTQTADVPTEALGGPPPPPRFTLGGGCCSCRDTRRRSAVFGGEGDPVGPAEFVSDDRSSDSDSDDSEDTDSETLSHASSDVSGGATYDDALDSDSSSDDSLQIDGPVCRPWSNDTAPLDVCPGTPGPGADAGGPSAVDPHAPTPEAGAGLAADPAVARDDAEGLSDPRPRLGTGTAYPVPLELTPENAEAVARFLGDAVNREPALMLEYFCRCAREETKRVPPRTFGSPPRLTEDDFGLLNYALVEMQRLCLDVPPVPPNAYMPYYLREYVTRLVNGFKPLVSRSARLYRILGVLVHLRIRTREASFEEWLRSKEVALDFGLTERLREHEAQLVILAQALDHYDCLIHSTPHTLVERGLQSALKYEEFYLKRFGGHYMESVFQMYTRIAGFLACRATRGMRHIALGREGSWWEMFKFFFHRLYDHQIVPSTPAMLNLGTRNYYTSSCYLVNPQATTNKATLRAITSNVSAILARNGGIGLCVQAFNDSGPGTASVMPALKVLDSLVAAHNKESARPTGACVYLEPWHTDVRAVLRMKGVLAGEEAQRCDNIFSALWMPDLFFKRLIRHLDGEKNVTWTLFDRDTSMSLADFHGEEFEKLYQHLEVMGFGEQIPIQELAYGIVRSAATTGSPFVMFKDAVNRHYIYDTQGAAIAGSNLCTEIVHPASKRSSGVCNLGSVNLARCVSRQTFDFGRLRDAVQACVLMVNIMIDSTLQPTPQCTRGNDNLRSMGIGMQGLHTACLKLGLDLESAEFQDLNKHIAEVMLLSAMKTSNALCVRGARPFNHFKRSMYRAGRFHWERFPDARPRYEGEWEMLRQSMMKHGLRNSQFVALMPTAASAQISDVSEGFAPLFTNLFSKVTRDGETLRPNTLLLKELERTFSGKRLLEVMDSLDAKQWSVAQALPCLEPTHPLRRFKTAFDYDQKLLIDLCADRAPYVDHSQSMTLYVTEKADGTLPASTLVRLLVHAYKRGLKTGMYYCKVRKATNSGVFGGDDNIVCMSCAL
Assay: not given
Details: Dutia et al. and Cohen et al., Nature 321 (1986); cited from earlier work
For “YGAVVNDL [8-desalanine homolog of the nonapeptide, Dutia et al]”, the “inhibition in vitro of enzyme activity” value is given as “inhibited”.
